Reference: ChEMBL document CHEMBL4431301, “The Medicinal Chemistry of Dengue Virus” (J Med Chem, 2016)

How the values were obtained:
dengue virus type 2 [1] = experiment: Antiviral activity against Dengue virus 2 Taiwanese PL046 infected in BHK21 cells after 48 hrs by plaque assay; type: functional, organism-based; details: Taiwanese PL046, BHK-21, 48 h
[2] = Inhibition of yeast alpha-glucosidase by double reciprocal plot method; set-up: species or system Saccharomyces cerevisiae
West Nile virus [3] = experiment: Antiviral activity against West Nile virus NY99 infected in african green monkey Vero cells assessed as reduction in viral titer preincubated for 2 hrs measured after 4 days by qRT-PCR; type: functional, organism-based
dengue virus type 2 [4] = experiment: Antiviral activity against Dengue virus 2 by CFI assay; type: functional, organism-based
dengue virus type 1 [5] = experiment: Antiviral activity against Dengue virus 1 by CFI assay; type: functional, organism-based
dengue virus type 3 [6] = experiment: Antiviral activity against Dengue virus 3 by CFI assay; type: functional, organism-based
dengue virus type 2 [7] = experiment: Antiviral activity against Dengue virus 2 NGC infected in african green monkey Vero cells assessed as reduction in viral titer preincubated for 2 hrs measured after 4 days by qRT-PCR; type: functional, organism-based
[8] = Inhibition of GST-fused Imp-alpha/beta1 (unknown origin) binding to Dengue virus NS5 after 2 hrs by alpha screen assay; set-up: species or system Homo sapiens
dengue virus type 4 [9] = experiment: Antiviral activity against Dengue virus 4 by CFI assay; type: functional, organism-based
West Nile virus [10] = experiment: Antiviral activity against West Nile virus infected in african green monkey Vero cells assessed as reduction in viral titer after 42 hrs by plaque assay; type: functional
dengue virus type 2 [11] = experiment: Antiviral activity against Dengue virus 2 NGC infected in african green monkey Vero cells assessed as reduction in viral titer after 42 hrs by plaque assay; type: functional
dengue virus type 2 [12] = experiment: Antiviral activity against Dengue virus 2 PL046 infected in human WS1 cells by immunofluorescence analysis; type: functional, organism-based
dengue virus type 2 [13] = experiment: Antiviral activity against Dengue virus 2 PL046 infected in human A549 cells by immunofluorescence analysis; type: functional, organism-based
dengue virus type 2 [14] = experiment: Antiviral activity against Dengue virus 2 PL046 infected in mouse J774A.1 cells by immunofluorescence analysis; type: functional, organism-based; details: PL046, J774.A1
dengue virus type 2 [15] = experiment: Antiviral activity against Dengue virus 2 PL046 infected in […] Hepa1-6 cells by immunofluorescence analysis; type: functional, organism-based; details: PL046, Hepa1-6
dengue virus type 2 [16] = experiment: Antiviral activity against Dengue virus 2 NGC infected in african green monkey Vero cells assessed as reduction in viral titer preincubated for 1 hr followed by viral infection measured after 5 days by immunoplaque assay; type: functional, organism-based
dengue virus type 2 [17] = experiment: Antiviral activity against Dengue virus 2 S221 infected in ADE AG129 mouse model assessed as protection against viral infection at 20 to 100 mg/kg, po administered thrice daily for 7 days starting 1 hr prior to viral challenge measured for 10 days; type: functional
[18] = Cytotoxicity against african green monkey Vero cells; type: cell-based; details: chlorocebus sabaeus
[19] = Oral bioavailability in Balb/c mouse at 200 mg/kg after 5 mins to 48 hrs by LC-MS/MS analysis; type: ADME, organism-based; details: in vivo
dengue virus type 2 [20] = experiment: Antiviral activity against Dengue virus 2 NGC infected in african green monkey Vero cells assessed as reduction in viral titer preincubated for 1 hr followed by viral infection measured after 5 days by plaque assay; type: functional, organism-based
[21] = Inhibition of N-terminal GST tagged recombinant Dengue virus 3 N-7 methyltransferase expressed in Escherichia coli BL21 cells by scintillation counting analysis; set-up: species or system dengue virus type 3
Nonstructural protein 5 = Nonstructural protein 5 (Dengue virus, UniProt V5TFZ2); experiment: Inhibition of N-terminal GST tagged recombinant Dengue virus 3 2'-O methyltransferase expressed in Escherichia coli BL21 cells by scintillation counting analysis; set-up: species or system dengue virus type 3
Sequence of Nonstructural protein 5 (V5TFZ2 whole entry): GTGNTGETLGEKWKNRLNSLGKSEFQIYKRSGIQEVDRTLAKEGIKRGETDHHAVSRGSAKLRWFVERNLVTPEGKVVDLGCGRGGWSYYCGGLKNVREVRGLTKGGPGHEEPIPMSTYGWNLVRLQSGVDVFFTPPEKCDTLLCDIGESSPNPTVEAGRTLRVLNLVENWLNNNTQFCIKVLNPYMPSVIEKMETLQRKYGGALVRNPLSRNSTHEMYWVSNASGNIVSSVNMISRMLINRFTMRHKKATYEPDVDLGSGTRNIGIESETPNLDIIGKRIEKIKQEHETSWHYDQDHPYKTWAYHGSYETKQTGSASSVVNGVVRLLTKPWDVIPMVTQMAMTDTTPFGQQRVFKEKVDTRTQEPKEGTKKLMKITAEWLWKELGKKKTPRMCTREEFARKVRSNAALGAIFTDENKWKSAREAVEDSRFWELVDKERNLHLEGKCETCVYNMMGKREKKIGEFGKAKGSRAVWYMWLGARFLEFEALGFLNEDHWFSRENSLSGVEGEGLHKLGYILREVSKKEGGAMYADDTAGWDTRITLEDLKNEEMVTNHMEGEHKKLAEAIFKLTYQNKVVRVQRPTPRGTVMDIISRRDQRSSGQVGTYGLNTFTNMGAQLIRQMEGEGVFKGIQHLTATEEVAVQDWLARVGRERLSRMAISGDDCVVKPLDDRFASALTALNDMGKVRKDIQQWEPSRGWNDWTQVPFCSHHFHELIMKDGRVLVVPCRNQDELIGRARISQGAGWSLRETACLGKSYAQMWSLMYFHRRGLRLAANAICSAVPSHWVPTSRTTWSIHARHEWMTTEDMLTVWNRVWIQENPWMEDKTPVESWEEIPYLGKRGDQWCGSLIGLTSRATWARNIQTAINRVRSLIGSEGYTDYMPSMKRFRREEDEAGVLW

dengue virus type 4 [22] = experiment: Antiviral activity against Dengue virus 4 2270 infected in BHK21 cells after 48 hrs by CFI assay; type: functional, organism-based; details: Dengue virus, 2270, BHK-21, 48 h
dengue virus type 3 [23] = experiment: Antiviral activity against Dengue virus 3 863 infected in BHK21 cells after 48 hrs by CFI assay; type: functional, organism-based; details: Dengue virus, 863, BHK-21, 48 h
dengue virus type 2 [24] = experiment: Antiviral activity against Dengue virus 2 3295 infected in BHK21 cells after 48 hrs by CFI assay; type: functional, organism-based; details: Dengue virus, 3295, BHK-21, 48 h
dengue virus type 1 [25] = experiment: Antiviral activity against Dengue virus 1 2402 infected in BHK21 cells after 48 hrs by CFI assay; type: functional, organism-based; details: Dengue virus, 2402, BHK-21, 48 h
[26] = Inhibition of biotinylated Imp-alpha/beta1 (unknown origin) binding to Dengue virus NS5 by alpha screen assay; set-up: species or system Homo sapiens
dengue virus type 1 [27] = experiment: Antiviral activity against Dengue virus 1 infected in human PBMC assessed as reduction in viral titer after 48 hrs preincubated with cells prior to ADE-mediated viral infection by plaque assay; type: functional, organism-based
dengue virus type 1 [28] = experiment: Antiviral activity against Dengue virus 1 infected in human Huh7 cells assessed as reduction in viral replication after 48 hrs by plaque assay; type: functional, organism-based; details: Huh-7, 48 h
dengue virus type 2 [29] = experiment: Antiviral activity against Dengue virus 2 infected in human Huh7 cells assessed as reduction in viral replication after 48 hrs by plaque assay; type: functional, organism-based; details: Huh-7, 48 h
dengue virus type 4 [30] = experiment: Antiviral activity against Dengue virus 4 infected in human Huh7 cells assessed as reduction in viral replication after 48 hrs by plaque assay; type: functional, organism-based; details: Huh-7, 48 h
dengue virus type 3 [31] = experiment: Antiviral activity against Dengue virus 3 infected in human Huh7 cells assessed as reduction in viral replication after 48 hrs by plaque assay; type: functional, organism-based; details: Huh-7, 48 h
dengue virus type 2 [32] = experiment: Antiviral activity against Dengue virus 2 infected in BHK-pD2hRucPac cells assessed as reduction in virus replication after 72 hrs by renilla luciferase reporter gene assay; type: functional, organism-based
[33] = Inhibition of Dengue virus 2 16681 NS5 guanylation expressed in Escherichia coliBL21(DE3) cells after 4 hrs by coomassie blue staining based SDS-PAGE method; set-up: species or system dengue virus type 2
dengue virus type 2 [34] = experiment: Antiviral activity against Dengue virus 2 NGC infected in human A549 cells assessed as reduction in viral titer after 48 hrs by plaque assay; type: functional, organism-based; details: A549, 48 h
dengue virus type 4 [35] = experiment: Antiviral activity against Dengue virus 4 22713 infected in BHK21 cells assessed as reduction in viral titer after 48 hrs by plaque assay; type: functional, organism-based; details: Dengue virus, 22713, BHK-21, 48 h
dengue virus type 3 [36] = experiment: Antiviral activity against Dengue virus 3 34640 infected in human A549 cells assessed as reduction in viral titer after 48 hrs by plaque assay; type: functional, organism-based; details: Dengue virus, 34640, A549, 48 h
dengue virus type 1 [37] = experiment: Antiviral activity against Dengue virus 1 West Pacific infected in human A549 cells assessed as reduction in viral titer after 48 hrs by plaque assay; type: functional, organism-based; details: A549, 48 h
dengue virus type 2 [38] = experiment: Antiviral activity against Dengue virus 2 NGC infected in HeLa cells assessed as reduction in viral RNA replication after 48 hrs by luciferase assay; type: functional, organism-based
dengue virus type 2 [39] = experiment: Antiviral activity against Dengue virus 2 NGC infected in african green monkey Vero cells assessed as reduction in viral titer at 6 uM after 44 hrs relative to control; type: functional
dengue virus type 2 [40] = experiment: Antiviral activity against Dengue virus 2 NGC infected in african green monkey Vero cells assessed as reduction in viral titer at 17 uM after 44 hrs relative to control; type: functional
dengue virus type 2 [41] = experiment: Antiviral activity against Dengue virus 2 infected in BHK21 cells assessed after 3 to 5 days by crystal violet staining based plaque assay; type: functional, organism-based; details: BHK-21
dengue virus type 2 [42] = experiment: Antiviral activity against Dengue virus 2 infected in BHK21 cells assessed as reduction in virus replication after 24 hrs by renilla luciferase reporter gene assay; type: functional, organism-based; details: BHK-21, 24 h
[43] = Cytotoxicity against BHK21 cells after 24 hrs by CellTiter-Glo luminescent assay; type: cell-based, Mesocricetus auratus, BHK-21; details: hamster

CCCCCCCCCCN1[C@H](CO)[C@@H](O)[C@H](O)[C@H]1CNC(=O)C1Cc2ccccc21 (some centres undefined)
EC50 (dengue virus type 2 [1]): 4.7 µM

O=C(NC[C@H]1N[C@H](CO)[C@@H](O)[C@@H]1O)C1Cc2ccccc21 (some centres undefined)
Ki [2]: 0.053 µM

IVERMECTIN
EC50 (West Nile virus [3]): 4 µM | EC50 (dengue virus type 2 [4]): 1.2 to 1.6 µM | EC50 (dengue virus type 1 [5]): 1.2 to 1.6 µM | EC50 (dengue virus type 3 [6]): 1.2 to 1.6 µM | EC50 (dengue virus type 2 [7]): 0.7 µM | IC50 [8]: 17 µM | EC50 (dengue virus type 4 [9]): 1.2 to 1.6 µM

COC(=O)c1c(-c2c(Cl)cccc2Cl)noc1-c1cnn(-c2cccc(Cl)c2)c1C(F)(F)F
EC90 (West Nile virus [10]): 0.00031 µM | EC90 (dengue virus type 2 [11]): 0.0052 µM

CCN(CCO)CCCC(C)Nc1ccnc2cc(Cl)ccc12 (centres undefined) [HYDROXYCHLOROQUINE]
IC50 (dengue virus type 2 [12]): 9.7 to 12.9 µM | IC50 (dengue virus type 2 [13]): 9.7 to 12.9 µM | IC50 (dengue virus type 2 [14]): 9.7 to 12.9 µM | IC50 (dengue virus type 2 [15]): 9.7 to 12.9 µM

OC[C@@H]1[C@@H](O)[C@H](O)[C@@H](O)CN1CCCCCCCCC1CCCO1 (some centres undefined)
EC50 (dengue virus type 2 [16]): 21.7 µM | Activity (dengue virus type 2 [17]): 100%

COCCCCCCCCCN1C[C@H](O)[C@@H](O)[C@H](O)[C@H]1CO
CC50 [18]: > 500 µM | bioavailability [19]: 84% | EC50 (dengue virus type 2 [20]): 17 µM

N[C@@H](CCSC[C@H]1O[C@@H](n2cnc3c(NCc4cccc(Cl)c4)ncnc32)[C@H](O)[C@@H]1O)C(=O)O
Ki [21]: 0.82 µM | Ki (Nonstructural protein 5): 0.17 µM

CCCC(=O)O[C@H]1CN2CC[C@H](O)[C@@H]2[C@@H](O)[C@@H]1O [CELGOSIVIR]
EC50 (dengue virus type 4 [22]): 0.22 to 0.68 µM | EC50 (dengue virus type 3 [23]): 0.22 to 0.68 µM | EC50 (dengue virus type 2 [24]): 0.2 µM | EC50 (dengue virus type 1 [25]): 0.22 to 0.68 µM

CC1=C(/C=C/C(C)=C/C=C/C(C)=C/C(=O)Nc2ccc(O)cc2)C(C)(C)CCC1 [FENRETINIDE]
IC50 [26]: 1 to 1.5 µM | EC50 (dengue virus type 1 [27]): 0.8 to 2.6 µM

CC(=O)O[C@H]1C[C@H](O[C@H]2[C@@H](O)C[C@H](O[C@H]3[C@@H](O)C[C@H](O[C@H]4CC[C@@]5(C)[C@H](CC[C@@H]6[C@@H]5C[C@@H](O)[C@]5(C)[C@@H](C7=CC(=O)OC7)CC[C@]65O)C4)O[C@@H]3C)O[C@@H]2C)O[C@H](C)[C@H]1O[C@@H]1O[C@H](CO)[C@@H](O)[C@H](O)[C@H]1O [LANATOSIDE C]
IC50 (dengue virus type 1 [28]): 0.5 to 1 µM | IC50 (dengue virus type 2 [29]): 0.5 to 1 µM | IC50 (dengue virus type 4 [30]): 0.5 to 1 µM | IC50 (dengue virus type 3 [31]): 0.5 to 1 µM

CC(C)(C)c1ccc(/C=C2\SC(=S)N(CCC(=O)O)C2=O)cc1
EC50 (dengue virus type 2 [32]): 30.8 µM | IC50 [33]: 7.3 µM

O=C1C[C@]2(C(=O)Nc3ccc(Cl)cc32)c2cnn(Cc3ccc(Cl)cc3)c2N1
EC50 (dengue virus type 2 [34]): 0.01 to 0.08 µM | EC50 (dengue virus type 4 [35]): > 20 µM | EC50 (dengue virus type 3 [36]): 0.01 to 0.08 µM | EC50 (dengue virus type 1 [37]): > 20 µM | EC50 (dengue virus type 2 [38]): 1.9 µM

O=C(Nc1cccc(Cn2cc(-c3cccc(S(=O)(=O)Nc4ccccc4C(=O)O)c3)cn2)c1)c1ccc(C(=O)c2ccccc2)cc1
fold change (FC) (dengue virus type 2 [39]): 3.4 | fold change (FC) (dengue virus type 2 [40]): 4.5

CCN(CC)Cc1cc(Nc2ccnc3cc(Cl)ccc23)ccc1O [AMODIAQUINE]
EC50 (dengue virus type 2 [41]): 1.08 µM | EC50 (dengue virus type 2 [42]): 7.41 µM | CC50 at 24 h [43]: 52.1 µM
